Results as given in patent publication US20120021434A1, “METHOD FOR TREATING B CELL REGULATED AUTOIMMUNE DISORDERS” (Synta Pharmaceuticals Corp., priority 2005, published 2012).

Legend:
p50 = assay: Nuclear p50 in PMA+ionomycin stimulated Jurkat T cells (immunoblot); assay type: cell-based; details: 100 nM
c-Rel = biological target: T1, c-Rel (Homo sapiens, UniProt Q04864); assay: Western blot of THP-1 nuclear extracts: c-Rel; assay type: cell-based
T1 construct: a western blot assay of THP1 nuclear c-Rel, p50 and p65 proteins was carried out; endogenous in cells; host or cells: THP-1; Jurkat
T1 sequence (Q04864 1-619): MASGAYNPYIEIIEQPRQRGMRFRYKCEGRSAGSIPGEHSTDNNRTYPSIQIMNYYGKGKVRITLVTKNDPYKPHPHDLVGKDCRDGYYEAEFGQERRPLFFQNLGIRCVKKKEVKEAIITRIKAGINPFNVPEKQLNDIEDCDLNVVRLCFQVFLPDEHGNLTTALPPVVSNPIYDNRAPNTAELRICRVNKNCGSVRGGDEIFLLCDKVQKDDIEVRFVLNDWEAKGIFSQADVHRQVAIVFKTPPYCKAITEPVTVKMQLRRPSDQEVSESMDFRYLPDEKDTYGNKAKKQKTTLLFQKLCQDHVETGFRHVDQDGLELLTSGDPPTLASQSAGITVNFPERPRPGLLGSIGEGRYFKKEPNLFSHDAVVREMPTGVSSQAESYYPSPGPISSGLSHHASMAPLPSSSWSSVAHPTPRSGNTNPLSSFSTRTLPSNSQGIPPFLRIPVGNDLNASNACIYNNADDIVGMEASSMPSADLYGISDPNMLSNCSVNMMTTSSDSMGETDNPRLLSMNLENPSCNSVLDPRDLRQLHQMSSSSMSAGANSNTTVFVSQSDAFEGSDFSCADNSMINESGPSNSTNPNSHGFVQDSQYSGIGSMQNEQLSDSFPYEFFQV
Description: The THP-1 cell, Jurkat cell and RAW264.7 cell line were obtained from American Type Culture Collection (Manassas, Va.). The THP-1 Jurkat cells were cultured in RPMI 1640 (ATCC, Manassas, Va.), supplemented with 10% FCS (ATCC, Manassas, Va.), and 1% penicillin/Streptomycin (Gibco-BRL, New York, N.Y.). The RAW264.7 cells were cultured in DMEM (ATCC, Manassas, Va.) supplemented with 10% FCS (ATCC, Manassas, Va.), and 1% penicillin/Streptomycin (Gibco-BRL, New York, N.Y.). The cells were stimulated with human or murine recombinant IFNγ (100 ng/ml) for 10 h followed by LPS (1 μg/ml) or SAC (0.025%) CpG ([…]) in the presence or absence of Compound 50 at different concentrations for an additional incubation.
THP-1 cells were suspended in 20 volumes of buffer A containing 10 mM KCl, 10 mM HEPES (pH 7.9), 1 mM MgCl2, 1 mM dithiothreitol (DTT), 0.1% Nonidet p40 (NP-40), and 0.5 mM phenylmethylsulfonyl fluoride (PMSF) and homogenized and centrifuged at 10,000 rpm at 4C afor 5 min. Nuclear pellets were then suspended in buffer C containing 400 mM NaCl, 20 mM HEPES 9, pH 7.9), 15 mM MgCl2, 0.2 mM EDTA, 1 mM DTT, 25% glycerol, 1 mM PMSF, and 10 ug of leupeptin, 20 ug of pepstatin, and 10 ug/ml antipain, incubated for 30 min at 4C, and centrifuged at 14,000 rpm for 20 min. The supernatants were dialyzed against buffer D containing 100 mM NaCl, 20 mM HEPES (pH 7.9), 20% glycerol, 1 mM PMSF, and 1 mM DTT.
The 10% SDS Polyacrylamide gels (Inveitrogen) were transferred to Pure Nitrocellulose membrane (BioRed, Hercules, Calif.). The membranes were blocked with 5% milk in TBST buffer and incubated with anti-c-Rel, anti-p65, anti-p50, anti-ICSBP or anti-PU-1 antibody (all the antibodies were purchased from Santa Cruz) at a dilution of 1:500 for 1 h at room temperature or overnight at 4C. […]
Of the transcription factors that have been analyzed, two factors, ICSBP and c-Rel, seem to be affected by Compound 4/Compound 50 treatment. […]

Q: Which results are given for `Cc1cccc(/C=N/Nc2cc(N3CCOCC3)nc(OCCc3ccccn3)n2)c1` [Compound 50, N-(3-Methyl-benzylidene)-N′-[6-morpholin-4-yl-2-(2-pyridin-2-yl-ethoxy)-pyrimidin-4-yl]-hydrazine]?
A: nuclear levels of p50 (p50): slightly reduced; level of nuclear c-Rel (c-Rel; THP-1 nuclear extracts, IFN-γ plus LPS or IFN-γ plus SAC, post-treatment level equal to or below non-stimulated level): significantly reduced; transcription factor c-Rel affected by treatment (c-Rel; of the transcription factors analyzed): affected
